From patent US20030086868A1, “Actinium-225 complexes and conjugates for radioimmunotherapy” (priority 2002, published 2003)

How the values were obtained:
[1] = In vivo biodistribution in nu/nu mice; conditions: for 225Ac Biodistribution, Blood / 225Ac Biodistribution, Bone / 225Ac Biodistribution, Kidneys / 225Ac Biodistribution, Liver: average; for pattern of distribution: intraperitoneal, approx. 2 μCi, nu/nu mice, period of 5 days
Protocol: Counting was carried out half an hour after sample preparation.

[2] = in vivo; cited from earlier work
[3] = tested on: antigen positive cell line; test: In-vitro cell kill (3H-thymidine incorporation), antigen positive cell line; assay type: cell-based
[4] = tested on: antigen negative cell line; test: In-vitro cell kill (3H-thymidine incorporation), antigen negative cell line; assay type: cell-based
[5] = target: T1, antigen excess (HuM195 is anti-CD33) (Homo sapiens, UniProt P20138); test: Cell-based immunoreactivity study (binding of labeled antibody to antigen excess)
T1 construct: host or cells: unnamed antigen-bearing cells

target cells = test: Internalization of isotope into target cells; assay type: cell-based; conditions: in 5 hours

T1 sequence (P20138 18-364): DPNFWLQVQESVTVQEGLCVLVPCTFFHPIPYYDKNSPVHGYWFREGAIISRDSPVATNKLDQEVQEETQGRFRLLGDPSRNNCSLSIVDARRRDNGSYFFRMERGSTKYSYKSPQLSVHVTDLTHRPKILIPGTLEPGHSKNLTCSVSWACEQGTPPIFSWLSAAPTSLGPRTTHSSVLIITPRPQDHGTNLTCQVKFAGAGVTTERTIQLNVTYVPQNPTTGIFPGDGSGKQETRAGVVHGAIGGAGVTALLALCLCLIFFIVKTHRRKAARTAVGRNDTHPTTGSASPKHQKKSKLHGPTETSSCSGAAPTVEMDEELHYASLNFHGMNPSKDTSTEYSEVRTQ

CC(=O)[O-].CC(=O)[O-].CC(=O)[O-].[225Ac+3] [^225Ac Acetate, reference compound]
225Ac Biodistribution, Blood ([1]; 1 d): 0.1 % dose/g
225Ac Biodistribution, Blood ([1]; 2 d): 0.2 % dose/g
225Ac Biodistribution, Blood ([1]; 5 d): 0.0 % dose/g
225Ac Biodistribution, Bone ([1]; 1 d): 13.3 % dose/g
225Ac Biodistribution, Bone ([1]; 2 d): 12.0 % dose/g
225Ac Biodistribution, Bone ([1]; 5 d): 17.1 % dose/g
225Ac Biodistribution, Kidneys ([1]; 1 d): 3.8 % dose/g
225Ac Biodistribution, Kidneys ([1]; 2 d): 3.2 % dose/g
225Ac Biodistribution, Kidneys ([1]; 5 d): 2.8 % dose/g
225Ac Biodistribution, Liver ([1]; 1 d): 46.6 % dose/g
225Ac Biodistribution, Liver ([1]; 2 d): 43.1 % dose/g
225Ac Biodistribution, Liver ([1]; 5 d): 68.5 % dose/g
pattern of distribution [1]: held up in the liver and bone but cleared from blood

O=P(O)(O)CN(CCN(CP(=O)(O)O)CP(=O)(O)O)CP(=O)(O)O [^225Ac-EDTMP, ethylenediaminetetra-methylenephosphonic acid, metal not drawn]
excretion [2]: poor
liver uptake [2]: still substantial

^225Ac-HuM195-MeO-DOTA
LD50 in a 2-day assay ([3]; 2-day assay, positive cell line): about 1.4 nCi/ml
LD50 in a 5-day assay ([3]; 5-day assay, specific activity of 0.035 Ci/g, 3H-thymidine incorporation): ~0.3 nCi/ml
225Ac Biodistribution, Blood ([1]; 1 d): 10.1 % dose/g
225Ac Biodistribution, Blood ([1]; 2 d): 10.2 % dose/g
225Ac Biodistribution, Blood ([1]; 5 d): 4.5 % dose/g
225Ac Biodistribution, Bone ([1]; 1 d): 3.8 % dose/g
225Ac Biodistribution, Bone ([1]; 2 d): 4.1 % dose/g
225Ac Biodistribution, Bone ([1]; 5 d): 5.3 % dose/g
225Ac Biodistribution, Kidneys ([1]; 1 d): 4.6 % dose/g
225Ac Biodistribution, Kidneys ([1]; 2 d): 5.2 % dose/g
225Ac Biodistribution, Kidneys ([1]; 5 d): 4.6 % dose/g
225Ac Biodistribution, Liver ([1]; 1 d): 8.8 % dose/g
225Ac Biodistribution, Liver ([1]; 2 d): 10.0 % dose/g
225Ac Biodistribution, Liver ([1]; 5 d): 20.7 % dose/g
pattern of distribution [1]: longer blood circulation time and less bone uptake
LD50 in a 2-day assay [4]: about 28 nCi/ml
immunoreactive fraction [5]: ~70%
isotope internalized in the target cells (target cells): more than 50%
